According to ChEMBL document CHEMBL1201861, “Genomics of Drug Sensitity in Cancer screening data, Wellcome Trust Sanger Institute”:

How the values were obtained:
Test in all cases: cells
[1] = tested on: MKN-28; assay type: functional, cell-based, Homo sapiens; conditions: Homo sapiens, MKN-28;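 note: cell viability assay read-out, IC50 reflects suppression of growth of human MKN-28 cells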
[2] = tested on: GAK; assay type: functional, cell-based, Homo sapiens; conditions: Homo sapiens, GAK;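 note: cell growth inhibition read out by a cell viability assay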
Description: SANGER: Inhibition of human GAK cell growth in a cell viability assay.

[3] = tested on: HCC70; assay type: functional, cell-based, Homo sapiens; conditions: Homo sapiens, HCC70;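 note: cell viability assay measuring how strongly the compound suppresses proliferation of HCC70 cells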
Description: SANGER: Inhibition of human HCC70 cell growth in a cell viability assay.

[4] = tested on: TE-10; assay type: functional, cell-based, Homo sapiens; conditions: Homo sapiens, TE-10;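 note: growth inhibition of TE-10 cells, measured by a cell viability assay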
[5] = tested on: ES8; assay type: functional, cell-based, Homo sapiens; conditions: Homo sapiens, ES8;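 note: growth inhibition of human ES8 cells, read out with a cell viability assay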
Description: SANGER: Inhibition of human ES8 cell growth in a cell viability assay.

[6] = tested on: Daoy; assay type: functional, cell-based, Homo sapiens; conditions: Homo sapiens, Daoy;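 note: daoy cell growth inhibition, read out as cell viability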
Description: SANGER: Inhibition of human Daoy cell growth in a cell viability assay.

[7] = tested on: RD; assay type: functional, cell-based, Homo sapiens; conditions: Homo sapiens, RD
Description: SANGER: Inhibition of human RD cell growth in a cell viability assay.

[8] = tested on: HOS; assay type: functional, cell-based, Homo sapiens; conditions: Homo sapiens, HOS;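 note: growth inhibition of human HOS cells, read out with a cell viability assay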
Description: SANGER: Inhibition of human HOS cell growth in a cell viability assay.

[9] = tested on: H4; assay type: functional, cell-based; conditions: Homo sapiens
Description: SANGER: Inhibition of human H4 cell growth in a cell viability assay.

[10] = tested on: SK-LMS-1; assay type: functional, cell-based, Homo sapiens; conditions: Homo sapiens, SK-LMS-1;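 note: growth inhibition of human SK-LMS-1 cells, read out with a cell viability assay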
Description: SANGER: Inhibition of human SK-LMS-1 cell growth in a cell viability assay.

[11] = tested on: NCI-H2170; assay type: functional, cell-based, Homo sapiens; conditions: Homo sapiens, NCI-H2170;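 note: cell viability assay measuring growth inhibition of human NCI-H2170 cancer cells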
Description: SANGER: Inhibition of human NCI-H2170 cell growth in a cell viability assay.

[12] = tested on: A704; assay type: functional, cell-based, Homo sapiens; conditions: Homo sapiens, A704;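 note: growth inhibition of human A704 cells, read out with a cell viability assay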
Description: SANGER: Inhibition of human A704 cell growth in a cell viability assay.

[13] = tested on: KNS-81-FD; assay type: functional, cell-based, Homo sapiens; conditions: Homo sapiens, KNS-81-FD;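 note: growth inhibition of KNS-81-FD cells, read out with a cell viability assay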
Description: SANGER: Inhibition of human KNS-81-FD cell growth in a cell viability assay.

[14] = tested on: WM-115; assay type: functional, cell-based, Homo sapiens; conditions: Homo sapiens, WM-115
Description: SANGER: Inhibition of human WM-115 cell growth in a cell viability assay.

[15] = tested on: NUGC-3; assay type: functional, cell-based, Homo sapiens; conditions: Homo sapiens, NUGC-3;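 note: growth inhibition of human NUGC-3 cells, read out with a cell viability assay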
Description: SANGER: Inhibition of human NUGC-3 cell growth in a cell viability assay.

[16] = tested on: CAL-85-1; assay type: functional, cell-based; conditions: Homo sapiens;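 note: growth inhibition of human CAL-85-1 cells, read out with a cell viability assay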
[17] = tested on: DU-4475; assay type: functional, cell-based; conditions: Homo sapiens
Description: SANGER: Inhibition of human DU-4475 cell growth in a cell viability assay.

[18] = tested on: SHP77; assay type: functional, cell-based, Homo sapiens, SHP-77; conditions: Homo sapiens, SHP77;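 note: growth inhibition of human SHP-77 cells measured by a cell viability assay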
Description: SANGER: Inhibition of human SHP-77 cell growth in a cell viability assay.

[19] = tested on: SK-UT-1; assay type: functional, cell-based, Homo sapiens; conditions: Homo sapiens, SK-UT-1;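 note: growth inhibition of SK-UT-1 cells, measured by a cell viability assay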
Description: SANGER: Inhibition of human SK-UT-1 cell growth in a cell viability assay.

[20] = tested on: LS-123; assay type: functional, cell-based, Homo sapiens; conditions: Homo sapiens, LS-123
[21] = tested on: COR-L88; assay type: functional, cell-based; conditions: Homo sapiens;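 note: growth inhibition of COR-L88 cells, read out with a cell viability assay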
Description: SANGER: Inhibition of human COR-L88 cell growth in a cell viability assay.

[22] = tested on: NCI-H747; assay type: functional, cell-based; conditions: Homo sapiens;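 note: growth inhibition of human NCI-H747 cells, read out by a cell viability assay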
[23] = tested on: L-363; assay type: functional, cell-based; conditions: Homo sapiens
Description: SANGER: Inhibition of human L-363 cell growth in a cell viability assay.

[24] = tested on: ML-2; assay type: functional, cell-based; conditions: Homo sapiens;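 note: growth inhibition of ML-2 cells, measured with a cell viability readout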
Description: SANGER: Inhibition of human ML-2 cell growth in a cell viability assay.

[25] = tested on: ChaGo-K-1; assay type: functional, cell-based; conditions: Homo sapiens;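 note: growth inhibition of ChaGo-K-1 cells, read out with a cell viability assay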
Description: SANGER: Inhibition of human ChaGo-K-1 cell growth in a cell viability assay.

[26] = tested on: AM-38; assay type: functional, cell-based, Homo sapiens; conditions: Homo sapiens, AM-38;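 note: growth inhibition of AM-38 cells of human origin, read out by a cell viability assay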
[27] = tested on: HL-60; assay type: functional, cell-based; conditions: Homo sapiens;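 note: growth inhibition of human HL-60 cells, read out with a cell viability assay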
Description: SANGER: Inhibition of human HL-60 cell growth in a cell viability assay.

[28] = tested on: TE-1; assay type: functional, cell-based, Homo sapiens; conditions: Homo sapiens, TE-1;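 note: growth inhibition of the human TE-1 cell line, read out with a cell viability assay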
Description: SANGER: Inhibition of human TE-1 cell growth in a cell viability assay.

[29] = tested on: SCH; assay type: functional, cell-based, Homo sapiens; conditions: Homo sapiens, SCH;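 note: growth inhibition of human SCH cells, read out in a cell viability assay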
Description: SANGER: Inhibition of human SCH cell growth in a cell viability assay.

[30] = tested on: NCI-H727; assay type: functional, cell-based, Homo sapiens; conditions: Homo sapiens, NCI-H727;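 note: growth inhibition of human NCI-H727 cells, read out with a cell viability assay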
Description: SANGER: Inhibition of human NCI-H727 cell growth in a cell viability assay.

[31] = tested on: KM12; assay type: functional, cell-based, Homo sapiens; conditions: Homo sapiens, KM12;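 note: KM12 cell growth inhibition, read out with a cell viability assay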
Description: SANGER: Inhibition of human KM12 cell growth in a cell viability assay.

[32] = tested on: MC-IXC; assay type: functional, cell-based, Homo sapiens; conditions: Homo sapiens, MC-IXC;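 note: growth inhibition of MC-IXC cells, read out with a cell viability assay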
Description: SANGER: Inhibition of human MC-IXC cell growth in a cell viability assay.

[33] = tested on: LCLC-97TM1; assay type: functional, cell-based, Homo sapiens; conditions: Homo sapiens, LCLC-97TM1;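 note: cell viability assay measuring growth inhibition of human LCLC-97TM1 cells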
Description: SANGER: Inhibition of human LCLC-97TM1 cell growth in a cell viability assay.

[34] = tested on: DoTc2-4510; assay type: functional, cell-based, Homo sapiens; conditions: Homo sapiens, DoTc2-4510
[35] = tested on: NCI-H1304; assay type: functional, cell-based; conditions: Homo sapiens;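 note: growth inhibition of the cancer cell line, measured in a cell viability assay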
Description: SANGER: Inhibition of human NCI-H1304 cell growth in a cell viability assay.

[36] = tested on: CAL-12T; assay type: functional, cell-based, Homo sapiens; conditions: Homo sapiens, CAL-12T;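 note: growth inhibition of human CAL-12T cells, read out with a cell viability assay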
Description: SANGER: Inhibition of human CAL-12T cell growth in a cell viability assay.

[37] = tested on: SF-295; assay type: functional, cell-based, Homo sapiens; conditions: Homo sapiens, SF-295; read-out: IC50;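 note: growth inhibition of SF-295 cells, read out with a cell viability assay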
Description: SANGER: Inhibition of human SF295 cell growth in a cell viability assay.

[38] = tested on: SW1463; assay type: functional, cell-based, Homo sapiens; conditions: Homo sapiens, SW1463;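 note: growth inhibition of SW1463 cells, determined with a cell viability assay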
Description: SANGER: Inhibition of human SW1463 cell growth in a cell viability assay.

[39] = tested on: BB65-RCC; assay type: functional, cell-based, Homo sapiens; conditions: Homo sapiens, BB65-RCC;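 note: growth inhibition of the cell line, measured with a cell viability assay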
Description: SANGER: Inhibition of human BB65-RCC cell growth in a cell viability assay.

[40] = tested on: HCE-T; assay type: functional, cell-based, Homo sapiens; conditions: Homo sapiens, HCE-T;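 note: cell viability assay read-out, reporting inhibition of HCE-T cell growth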
Description: SANGER: Inhibition of human HCE-T cell growth in a cell viability assay.

[41] = tested on: KNS-42; assay type: functional, cell-based, Homo sapiens; conditions: Homo sapiens, KNS-42;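 note: growth inhibition of KNS-42 cells, read out with a cell viability assay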
Description: SANGER: Inhibition of human KNS-42 cell growth in a cell viability assay.

[42] = tested on: COLO-320-HSR; assay type: functional, cell-based; conditions: Homo sapiens;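 note: growth inhibition of COLO-320-HSR cells, determined with a cell viability assay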
Description: SANGER: Inhibition of human COLO-320-HSR cell growth in a cell viability assay.

[43] = tested on: RCC10RGB; assay type: functional, cell-based, Homo sapiens; conditions: Homo sapiens, RCC10RGB;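 note: growth inhibition of human RCC10RGB cells, read out by a cell viability assay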
Description: SANGER: Inhibition of human RCC10RGB cell growth in a cell viability assay.

[44] = tested on: NCI-H2405; assay type: functional, cell-based, Homo sapiens; conditions: Homo sapiens, NCI-H2405;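 note: growth inhibition of the human cell line, read out with a cell viability assay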
Description: SANGER: Inhibition of human NCI-H2405 cell growth in a cell viability assay.

[45] = tested on: MDA-MB-157; assay type: functional, cell-based, Homo sapiens; conditions: Homo sapiens, MDA-MB-157
Description: SANGER: Inhibition of human MDA-MB-157 cell growth in a cell viability assay.

[46] = tested on: ES6; assay type: functional, cell-based, Homo sapiens; conditions: Homo sapiens, ES6;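 note: growth inhibition of human ES6 cells, read out with a cell viability assay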
Description: SANGER: Inhibition of human ES6 cell growth in a cell viability assay.

[47] = tested on: MDA-MB-453; assay type: functional, cell-based, Homo sapiens; conditions: Homo sapiens, MDA-MB-453
Description: SANGER: Inhibition of human MDA-MB-453 cell growth in a cell viability assay.

[48] = tested on: A-427; assay type: functional, cell-based, Homo sapiens; conditions: Homo sapiens, A-427;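 note: growth inhibition of human A-427 cells, read out by a cell viability assay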
Description: SANGER: Inhibition of human A427 cell growth in a cell viability assay.

[49] = tested on: CAL-33; assay type: functional, cell-based, Homo sapiens; conditions: Homo sapiens, CAL-33;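 note: growth inhibition of CAL-33 cells, read out with a cell viability assay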
Description: SANGER: Inhibition of human CAL-33 cell growth in a cell viability assay.

[50] = tested on: no-11; assay type: functional, cell-based, Homo sapiens; conditions: Homo sapiens;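 note: growth inhibition of human NO-11 cells, read out with a cell viability assay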
Description: SANGER: Inhibition of human no-11 cell growth in a cell viability assay.

[51] = tested on: RXF 393; assay type: functional, cell-based; conditions: Homo sapiens;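 note: growth inhibition of human RXF 393 cells, read out with a cell viability assay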

C=CCc1cccc(/C=N/NC(=O)CN2CCN(Cc3ccccc3)CC2)c1O [PAC-1]
IC50 [1]: > 2560 nM | IC50 [2]: > 2560 nM | IC50 [3]: > 2560 nM | IC50 [4]: > 2560 nM | IC50 [5]: > 2560 nM | IC50 [6]: 2190 nM | IC50 [7]: > 2560 nM | IC50 [8]: > 2560 nM | IC50 [9]: > 2560 nM | IC50 [10]: > 2560 nM | IC50 [11]: > 2560 nM | IC50 [12]: > 2560 nM | IC50 [13]: > 2560 nM | IC50 [14]: > 2560 nM | IC50 [15]: > 2560 nM | IC50 [16]: > 2560 nM | IC50 [17]: 1910 nM | IC50 [18]: > 2560 nM | IC50 [19]: > 2560 nM | IC50 [20]: > 2560 nM | IC50 [21]: > 2560 nM | IC50 [22]: > 2560 nM | IC50 [23]: > 2560 nM | IC50 [24]: > 2560 nM | IC50 [25]: > 2560 nM | IC50 [26]: > 2560 nM | IC50 [27]: > 2560 nM | IC50 [28]: > 2560 nM | IC50 [29]: > 2560 nM | IC50 [30]: 2000 nM | IC50 [31]: > 2560 nM | IC50 [32]: > 2560 nM | IC50 [33]: 1420 nM | IC50 [34]: > 2560 nM | IC50 [35]: > 2560 nM | IC50 [36]: > 2560 nM | IC50 [37]: > 2560 nM | IC50 [38]: > 2560 nM | IC50 [39]: > 2560 nM | IC50 [40]: > 2560 nM | IC50 [41]: > 2560 nM | IC50 [42]: > 2560 nM | IC50 [43]: > 2560 nM | IC50 [44]: > 2560 nM | IC50 [45]: > 2560 nM | IC50 [46]: 1490 nM | IC50 [47]: > 2560 nM | IC50 [48]: > 2560 nM | IC50 [49]: > 2560 nM | IC50 [50]: > 2560 nM | IC50 [51]: > 2560 nM

Cc1ccc(Nc2nccc(N(C)c3ccc4c(C)n(C)nc4c3)n2)cc1S(N)(=O)=O [PAZOPANIB]
IC50 [1]: > 8000 nM | IC50 [2]: […] | IC50 [3]: > 8000 nM | IC50 [4]: > 8000 nM | IC50 [5]: > 8000 nM | IC50 [6]: 4780 nM | IC50 [7]: > 8000 nM | IC50 [8]: > 8000 nM | IC50 [9]: 2510 nM | IC50 [10]: > 8000 nM | IC50 [11]: > 8000 nM | IC50 [12]: 1600 nM | IC50 [13]: > 8000 nM | IC50 [14]: 5760 nM | IC50 [15]: > 8000 nM | IC50 [16]: > 8000 nM | IC50 [17]: > 8000 nM | IC50 [18]: > 8000 nM | IC50 [19]: > 8000 nM | IC50 [20]: > 8000 nM | IC50 [21]: > 8000 nM | IC50 [22]: > 8000 nM | IC50 [23]: > 8000 nM | IC50 [24]: > 8000 nM | IC50 [25]: > 8000 nM | IC50 [26]: > 8000 nM | IC50 [27]: > 8000 nM | IC50 [28]: > 8000 nM | IC50 [29]: > 8000 nM | IC50 [30]: 5410 nM | IC50 [31]: > 8000 nM | IC50 [32]: 1120 nM | IC50 [33]: > 8000 nM | IC50 [34]: > 8000 nM | IC50 [35]: > 8000 nM | IC50 [36]: > 8000 nM | IC50 [37]: > 8000 nM | IC50 [38]: > 8000 nM | IC50 [39]: > 8000 nM | IC50 [40]: > 8000 nM | IC50 [41]: > 8000 nM | IC50 [42]: > 8000 nM | IC50 [43]: > 8000 nM | IC50 [44]: > 8000 nM | IC50 [45]: > 8000 nM | IC50 [46]: 6030 nM | IC50 [47]: > 8000 nM | IC50 [48]: 1980 nM | IC50 [49]: > 8000 nM | IC50 [50]: > 8000 nM | IC50 [51]: > 8000 nM

Cn1cncc1[C@@](N)(c1ccc(Cl)cc1)c1ccc2c(c1)c(-c1cccc(Cl)c1)cc(=O)n2C [TIPIFARNIB]
IC50 [1]: 1440 nM | IC50 [2]: 3800 nM | IC50 [3]: 1050 nM | IC50 [4]: 812 nM | IC50 [5]: 10400 nM | IC50 [6]: 57.5 nM | IC50 [7]: 12000 nM | IC50 [8]: 4100 nM | IC50 [9]: 1220 nM | IC50 [10]: 184 nM | IC50 [11]: 8390 nM | IC50 [12]: > 16000 nM | IC50 [13]: 11200 nM | IC50 [14]: > 16000 nM | IC50 [15]: 4190 nM | IC50 [16]: 1250 nM | IC50 [17]: 2190 nM | IC50 [18]: 9940 nM | IC50 [19]: 4860 nM | IC50 [20]: 2110 nM | IC50 [21]: > 16000 nM | IC50 [22]: 2660 nM | IC50 [23]: > 16000 nM | IC50 [24]: < 62.5 nM | IC50 [25]: 1750 nM | IC50 [26]: > 16000 nM | IC50 [27]: 6930 nM | IC50 [28]: 2610 nM | IC50 [29]: > 16000 nM | IC50 [30]: 874 nM | IC50 [31]: 117 nM | IC50 [32]: 2760 nM | IC50 [33]: 2300 nM | IC50 [34]: 1680 nM | IC50 [35]: > 16000 nM | IC50 [36]: 760 nM | IC50 [37]: 2160 nM | IC50 [38]: > 16000 nM | IC50 [39]: 2640 nM | IC50 [40]: 8000 nM | IC50 [41]: 5760 nM | IC50 [42]: 13600 nM | IC50 [43]: 8490 nM | IC50 [44]: 9600 nM | IC50 [45]: 14700 nM | IC50 [46]: 539 nM | IC50 [47]: > 16000 nM | IC50 [48]: 579 nM | IC50 [49]: 3680 nM | IC50 [50]: 4010 nM | IC50 [51]: > 16000 nM
